In paper PMC4279163, “Inhibitory Effect of b-AP15 on the 20S Proteasome” (Biomolecules, 2014):
Where “and” joins values, the source holds several entries; their conditions need not be identical. Equal values may be shown once. Read-outs that look alike come from different tables or passages of the source.

What was measured:
20S proteasome = test system: 20S proteasome; design: method as in PMID 22057347; settings: 50 μM; SDS as activator; cited from earlier work
[1] = test system: proteasome of HeLa Ub^G76V-GFP cells; test: Cell-based proteasome inhibition assay (Ub-GFP accumulation); settings: 24 h
Experimental: It was shown that b-AP15 at 50 μM inhibited the deubiquitination by the 19S regulatory particle, but not the 20S proteasome in in vitro enzymatic assays. […] HeLa Ub^G76V-GFP cells express ubiquitin-green fluorescent protein (Ub-GFP), which is efficiently degraded by the proteasome. HeLa Ub^G76V-GFP cells accumulate Ub-GFP in the presence of proteasome inhibitors. […] Some of the HeLa Ub^G76V-GFP cells turned green in the presence of b-AP15 at a concentration as low as 0.32 μM (Figure 1b). […] Ub-YFP was accumulated in the MelJuSo Ub-YFP cells at a b-AP15 concentration as low as 0.7 μM [12].
Figure 1 b-AP15 inhibited the proteasome of HeLa ubiquitin-green fluorescent protein (Ub^G76V-GFP) cells. HeLa Ub^G76V-GFP cells were treated with b-AP15 at 0.95 μM (a,d); 0.32 μM (b,e), or no b-AP15 (c,f) for 24 h, where (a), (b), and (c) are fluorescence microscopic images; (d), (e), and (f) are regular phase contrast images of the cells.
HeLa Ub^G76V-GFP cells (kindly provided by Nico P. Dantuma, Karolinska Institutet, Stockholm, Sweden) were cultured in DMEM medium supplemented with 10% fetal calf serum, 100 units/mL of penicillin, and 100 µg/mL of streptomycin. […] The green fluorescence emitted by the treated HeLa Ub^G76V-GFP cells was then observed and documented with a Nikon fluorescent microscopic system.

[2] = molecular target: T1, human 20S proteasome, caspase-like activity (Homo sapiens, UniProt P28072); test: 20S proteasome assay, caspase-like activity ((Z)-LLEbNA); format: biochemical
T1 construct: purchased Calbiochem
Experimental: (§1) Proteasome assay kits were purchased from Calbiochem, San Diego, CA. The effect of the proteasome inhibitors on the 20S proteasome activities was assayed following the protocols provided by the manufacturer. The major components of the assay mixture are the human 20S proteasome, fluorogenic peptide substrates and a proteasome activator. […] The concentrations of the proteasome activators used, PA28, PALAME, and SDS were 2 μg/mL, 19 μM, and 0.03% (V/V), respectively.
(§2) The trypsin-like and caspase-like activities of the 20S proteasome were determined using the fluorogenic substrates Bz-VGR-AMC (20 μM) and (Z)-LLEbNA (20 μM), respectively. Fluorescence generated from the proteolytic reaction in the presence of various concentrations of the inhibitors was measured using a BioTek fluorometer. […] The value of IC50 is expressed as mean ± standard deviation from three independent assays using CalcuSyn (Biosoft, Cambridge, UK).

[3] = test system: MelJuSo Ub-YFP reporter cell line; design: method as in PMID 22057347; settings: MelJuSo Ub-YFP cells; cited from earlier work
[4] = molecular target: T2, human 19S regulatory particles (Homo sapiens, UniProt P54578+Q9Y5K5); test: 19S regulatory particle de-ubiquitinase assay (ub-AMC); format: biochemical; settings: 19S 2.9 nM; ub-AMC 1 μM; read-out: IC50, deubiquitinase activities of the 19S regulatory particles
T2 construct: purchased Boston Biochem
Experimental: Figure 2 (a) b-AP15 inhibited the 19S regulatory particles. The activity of human 19S regulatory particles (Boston Biochem) was determined in the presence of the fluorogenic substrate ub-AMC and various concentrations of b-AP15 as indicated using a reported assay condition. RFU denotes the relative fluorescence units of the reactions; (b) Inhibitory effect of b-AP15 on the chymotrypsin-like activity of the 20S proteasome. BG in the figure denotes background.
The de-ubiquitinase activities of the human 19S regulatory particles (proteasome) (Boston Biochem, Boston, MA, USA) were determined in the presence of the fluorogenic substrate ub-AMC (Boston Biochem) and various concentrations of b-AP15 using the reported assay condition. The reaction buffer used contained 25 mM HEPES, 50 mM NaCl, 10 mM MgCl2, 2 mM ATP, and 1 mM DDT. The human 19S regulatory particles and the substrate ub-AMC were used at a final concentration of 2.9 nM, and 1 μM, respectively. The proteolysis reaction rate was monitored using a BioTek fluorometer (Winooski, VT, USA).

[5] = molecular target: T3, 20S proteasome, chymotrypsin-like activity (Homo sapiens, UniProt P28074); test: 20S proteasome assay, chymotrypsin-like activity (Suc-LLVY-AMC); format: biochemical; design: purchased Calbiochem; settings: for IC50: Suc-LLVY-AMC 20 μM, mean ± SD, three assays
Experimental: as §1, §2

multiple myeloma = test system: multiple myeloma; design: method as in PMID 24319254; settings: human xenograft mouse model; cited from earlier work
[6] = molecular target: T4, human 20S proteasome, trypsin-like activity (Homo sapiens, UniProt Q99436); test: 20S proteasome assay, trypsin-like activity (Bz-VGR-AMC); format: biochemical; settings: activator PA28; Bz-VGR-AMC 20 μM; read-out: IC50, trypsin-like activity of PA28-activated 20S proteasome
T4 construct: purchased Calbiochem
Experimental: as §1, §2

19S regulatory particle = test system: 19S regulatory particle; design: method as in PMID 22057347; settings: 50 μM; cited from earlier work
[7] = molecular target: T3, 20S proteasome, chymotrypsin-like activity; test: HPLC analysis of the substrates and products of the 20S proteasome; format: biochemical; settings: 0, 2.4, 9.6, 38 μM; PA28 11 μg/mL; 6 h, room temperature
Source text: b-AP15 is highly chromogenic with a conjugated π-bonding system that could potentially be quenching the emitted fluorescence from proteasome cleavage of the substrate. To eliminate the possible effect of quenching by b-AP15, we used HPLC to analyze the substrate and cleaved products, AMC (P1) and Suc-LLVY (P2), after the enzyme reactions. The ratio of P/S was used to express the relative amount of reaction product formation under the assay conditions, where P represents the products and S represents the substrate Suc-LLVY-AMC (S). […]
Figure 3 Inhibition of the chymotrypsin-like activity of the 20S proteasome. The reaction products of the 20S proteasome, AMC (P1), Suc-LLVY (P2), and substrate Suc-LLVY-AMC (S) were analyzed by HPLC. P1/S and P2/S are the ratios of the reaction products and the substrate calculated from the area under the curve of the HPLC profiles.
b-AP15 at various concentrations (0, 2.4, 9.6, and 38 μM) was incubated with the 20S proteasome (4.3 nM), substrate (Suc-LLVY-AMC, 0.2 mM), and PA28 (11 μg/mL) at room temperature for 6 h. […] The reaction products, AMC (P1), Suc-LLVY (P2), and substrate Suc-LLVY-AMC (S) in the filtrate were analyzed using reverse phase HPLC with a gradient of increasing acetonitrile/water ratio. […]

In the case of `C=CC(=O)N1C/C(=C\c2ccc([N+](=O)[O-])cc2)C(=O)/C(=C/c2ccc([N+](=O)[O-])cc2)C1` [b-AP15], the “Inhibition of the 20S proteasome” value (20S proteasome) is given as “did not inhibit”, the “Accumulation of Ub^G76V-GFP and/or GFP in cells” value ([1]; 0.95 μM) is given as “accumulation of Ub^G76V-GFP and/or GFP in majority of the cells” and the “Lowest concentration at which some cells turned green” value ([1]; fluorescence microscopy) is given as 0.32 µM. For the same molecule, the IC50 ([2]; activator PA28, (Z)-LLEbNA 20 μM, read-out: IC50, caspase-like activity of PA28-activated 20S proteasome) was over 48 µM, the “Effect on the caspase-like activity” value ([2]; up to 48 μM, PA28-activated) was “did not significantly affect” and the “Lowest concentration at which Ub-YFP was accumulated” value [3] was 0.7 µM. The IC50 [4] was 15.2 µM, the inhibition at 48 µM ([5]; 48 μM, 0.03% SDS as activator, read-out: Inhibition of the chymotrypsin-like activity of the SDS-activated 20S proteasome) was under 50% and the IC50 ([5]; activator PA28 2 μg/mL, read-out: IC50, chymotrypsin-like activity of the 20S proteasome activated by PA28) was 18.1 ± 3.22 µM. For the same molecule, the IC50 ([5]; activator PALAME 19 μM, read-out: IC50, chymotrypsin-like activity of the 20S proteasome activated by PALAME) was 26 µM and 26.3 µM, the IC50 ([5]; activator SDS 0.03%, read-out: IC50, chymotrypsin-like activity of the 20S proteasome activated by SDS) was over 48 µM and the Anti-multiple myeloma activity (multiple myeloma) was “anti-multiple myeloma activity”. The IC50 [6] was 40.6 ± 5.23 µM, the “Inhibition of deubiquitination by the 19S regulatory particle” value (19S regulatory particle) was “inhibited” and the “Formation of the two cleaved products AMC (P1) and Suc-LLVY (P2) by HPLC” value [7] was “inhibited the formation of the two cleaved products in a dose dependent manner”.
